Source: article PMC8878468, “Image-Based Annotation of Chemogenomic Libraries for Phenotypic Screening” (Molecules, 2022)
Read-outs that look alike come from different tables or passages of the source.

Legend:
U2OS cells [1] = conditions: High-Via Extend protocol, cell line and unit inferred
[2] = source not stated; cited from earlier work
U2OS cells [3] = test: Multiplex high-content protocol (nuclei gating, tubulin, mitochondrial mass, membrane permeability); type: cell-based, human; conditions: U2OS, 1 µM
Protocol: Using the CQ1 high-content confocal microscope (Yokogawa), cellular shape and fluorescence was measured before and 12 h as well as 24 h after compound treatment. All compounds were diluted in DMSO to a concentration of 10 mM.
The rather large spacing distance was used to create a robust readout, compensating potential plate variations and enabling automated screening without the use of autofocus. The overlap of the fluorescence emission spectra of the dyes was neglectable for all but the MitoTracker Red and Annexin V Alexa Fluor 680 (Supplementary Figure S9).
All images were analyzed using the CellPathfinder software (Yokogawa). Segmentation of cells was performed as described earlier. First, the cells are classified in Hoechst High Intensity Objects or Normal Intensity Objects (Supplementary Table S7). All normal gated cells are further classified in healthy, fragmented or pyknosed nuclei (Supplementary Table S7). The pyknosed cells are gated in mitotic or apoptotic cells using seven features for the cell body and five features for the cell nuclei according to their Annexin V staining intensity (Supplementary Table S7). All cells that were classified as including a healthy nucleus are further gated into three phenotypic classes. […] Growth rate was calculated against non-treated cells and cells treated with DMSO 0.1% [61].

FGFR = conditions: cited from earlier work
[4] = read-out: IC 50 14 h, Table S2, 14 h
[5] = read-out: IC 50 26 h, Table S2, 26 h
[6] = read-out: IC 50 42 h, Table S2, 42 h
[7] = read-out: IC 50 56 h, Table S2, 56 h

compound precipitation in assay (U2OS cells [3]) | Structure (SMILES) | IC50 (U2OS cells [1]; [4]) | IC50 (U2OS cells [1]; [5]) | IC50 (U2OS cells [1]; [6]) | IC50 (U2OS cells [1]; [7]) | logP [2] | Hoechst High Intensity Objects (Hoechst intensity compared to normal nuclei) (U2OS cells [3]) | cellular activity (FGFR)
 | CCC(=O)N1CCN(c2ccc(-n3c(=O)ccc4cnc5ccc(-c6cnc7ccccc7c6)cc5c43)cc2C(F)(F)F)CC1 [torin] | 800 nM | 800 nM | 700 nM | 700 nM |  |  | 
 | Cc1sc2c(c1C)C(c1ccc(Cl)cc1)=N[C@@H](CC(=O)OC(C)(C)C)c1nnc(C)n1-2 [JQ1] | 9700 nM | 9000 nM | 13700 nM | 200 nM |  |  | 
precipitated | CCN(CC)CCCCNc1ncc2cc(-c3cc(OC)cc(OC)c3)c(NC(=O)NC(C)(C)C)nc2n1 [PD173074] |  |  |  |  | 4.7 | more than 50% | less than 25 nM
